Laboratory results taken from publication PMC6784069 (Toxins, 2019).
Where “and” joins values, the source holds several entries; their conditions need not be identical. Equal entries are not always repeated. Where two headings read alike, the source gives them in different places. Residues, ends and D or L forms follow the SMILES beside them.

Columns and labels:
hKV11.1 [1] = biological target: T1, hKV11.1 (Homo sapiens, UniProt Q12809); test: in vitro; conditions: pH 7.4
hNaV1.5 = hNaV1.5 (Homo sapiens, UniProt Q14524); test: cell-based; conditions: IC50 on hNaV1.5 current; SD
Chain of hNaV1.5 (Q14524 whole entry, looked up): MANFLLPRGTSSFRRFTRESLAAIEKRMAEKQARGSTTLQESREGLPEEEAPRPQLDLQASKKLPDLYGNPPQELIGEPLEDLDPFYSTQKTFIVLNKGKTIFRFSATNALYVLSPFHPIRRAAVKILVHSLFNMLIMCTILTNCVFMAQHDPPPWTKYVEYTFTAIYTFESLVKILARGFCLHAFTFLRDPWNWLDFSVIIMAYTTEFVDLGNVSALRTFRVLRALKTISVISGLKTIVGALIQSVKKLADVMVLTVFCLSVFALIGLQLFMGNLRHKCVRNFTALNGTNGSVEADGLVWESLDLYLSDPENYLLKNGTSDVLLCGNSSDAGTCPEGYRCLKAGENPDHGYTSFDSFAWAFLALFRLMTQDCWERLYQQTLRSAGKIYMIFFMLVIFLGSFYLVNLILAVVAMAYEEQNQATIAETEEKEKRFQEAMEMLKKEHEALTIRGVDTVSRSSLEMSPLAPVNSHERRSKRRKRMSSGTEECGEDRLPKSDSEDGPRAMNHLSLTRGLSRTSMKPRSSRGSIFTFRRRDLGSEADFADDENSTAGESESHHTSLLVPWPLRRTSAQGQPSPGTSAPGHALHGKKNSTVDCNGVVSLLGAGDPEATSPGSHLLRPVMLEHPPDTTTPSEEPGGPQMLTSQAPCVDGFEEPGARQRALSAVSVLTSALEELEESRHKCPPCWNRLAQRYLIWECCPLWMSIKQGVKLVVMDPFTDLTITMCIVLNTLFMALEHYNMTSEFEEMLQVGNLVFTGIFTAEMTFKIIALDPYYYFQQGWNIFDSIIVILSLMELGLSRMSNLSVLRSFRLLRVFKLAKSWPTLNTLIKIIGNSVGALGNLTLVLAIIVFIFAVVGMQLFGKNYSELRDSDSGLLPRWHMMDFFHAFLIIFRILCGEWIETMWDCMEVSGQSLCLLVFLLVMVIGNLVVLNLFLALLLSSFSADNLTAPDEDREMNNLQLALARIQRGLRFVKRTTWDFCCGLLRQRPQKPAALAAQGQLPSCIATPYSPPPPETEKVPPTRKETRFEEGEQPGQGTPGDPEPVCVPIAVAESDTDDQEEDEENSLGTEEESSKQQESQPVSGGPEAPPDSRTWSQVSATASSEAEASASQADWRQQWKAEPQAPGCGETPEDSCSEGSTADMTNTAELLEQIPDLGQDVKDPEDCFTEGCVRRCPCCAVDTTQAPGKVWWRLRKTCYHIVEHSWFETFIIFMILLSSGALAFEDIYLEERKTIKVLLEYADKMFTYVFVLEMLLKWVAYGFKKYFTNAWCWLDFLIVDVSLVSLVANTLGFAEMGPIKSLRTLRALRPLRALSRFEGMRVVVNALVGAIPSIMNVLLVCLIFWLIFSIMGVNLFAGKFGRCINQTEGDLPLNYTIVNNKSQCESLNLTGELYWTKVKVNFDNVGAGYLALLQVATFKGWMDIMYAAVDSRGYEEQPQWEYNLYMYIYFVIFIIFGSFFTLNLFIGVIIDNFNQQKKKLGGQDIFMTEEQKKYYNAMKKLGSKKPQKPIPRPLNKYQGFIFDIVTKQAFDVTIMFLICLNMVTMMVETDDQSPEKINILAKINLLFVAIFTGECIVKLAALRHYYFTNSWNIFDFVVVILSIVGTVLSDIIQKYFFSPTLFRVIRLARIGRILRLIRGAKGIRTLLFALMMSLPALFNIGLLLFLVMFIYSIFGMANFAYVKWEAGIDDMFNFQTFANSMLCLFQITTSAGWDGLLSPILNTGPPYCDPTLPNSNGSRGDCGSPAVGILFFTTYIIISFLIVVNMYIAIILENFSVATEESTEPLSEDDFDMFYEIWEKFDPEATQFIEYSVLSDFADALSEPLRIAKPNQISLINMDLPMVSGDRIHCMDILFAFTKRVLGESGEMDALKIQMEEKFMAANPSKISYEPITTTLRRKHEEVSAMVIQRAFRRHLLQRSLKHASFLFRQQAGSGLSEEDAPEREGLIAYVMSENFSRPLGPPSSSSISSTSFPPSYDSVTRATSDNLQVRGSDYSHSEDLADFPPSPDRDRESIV

hNaV1.8 = hNaV1.8 (Homo sapiens, UniProt Q9Y5Y9); test: cell-based; format: cell-based
hNaV1.2 = hNaV1.2 (Homo sapiens, UniProt Q99250); test: cell-based; conditions: SD
[2] = system: hNaV1.2, 1.5 and 1.7–1.8, hCaV1.2 and hKV11.1 currents; conditions: for Hill number nH, all concentration–response curves: SD
hCaV1.2 = hCaV1.2 (Homo sapiens, UniProt Q13936); test: cell-based; conditions: SD
hNaV1.7 [3] = biological target: T2, hNaV1.7 (Homo sapiens, UniProt Q15858); test: cell-based; format: cell-based; conditions: for IC50: SD
T2 sequence (Q15858 whole entry): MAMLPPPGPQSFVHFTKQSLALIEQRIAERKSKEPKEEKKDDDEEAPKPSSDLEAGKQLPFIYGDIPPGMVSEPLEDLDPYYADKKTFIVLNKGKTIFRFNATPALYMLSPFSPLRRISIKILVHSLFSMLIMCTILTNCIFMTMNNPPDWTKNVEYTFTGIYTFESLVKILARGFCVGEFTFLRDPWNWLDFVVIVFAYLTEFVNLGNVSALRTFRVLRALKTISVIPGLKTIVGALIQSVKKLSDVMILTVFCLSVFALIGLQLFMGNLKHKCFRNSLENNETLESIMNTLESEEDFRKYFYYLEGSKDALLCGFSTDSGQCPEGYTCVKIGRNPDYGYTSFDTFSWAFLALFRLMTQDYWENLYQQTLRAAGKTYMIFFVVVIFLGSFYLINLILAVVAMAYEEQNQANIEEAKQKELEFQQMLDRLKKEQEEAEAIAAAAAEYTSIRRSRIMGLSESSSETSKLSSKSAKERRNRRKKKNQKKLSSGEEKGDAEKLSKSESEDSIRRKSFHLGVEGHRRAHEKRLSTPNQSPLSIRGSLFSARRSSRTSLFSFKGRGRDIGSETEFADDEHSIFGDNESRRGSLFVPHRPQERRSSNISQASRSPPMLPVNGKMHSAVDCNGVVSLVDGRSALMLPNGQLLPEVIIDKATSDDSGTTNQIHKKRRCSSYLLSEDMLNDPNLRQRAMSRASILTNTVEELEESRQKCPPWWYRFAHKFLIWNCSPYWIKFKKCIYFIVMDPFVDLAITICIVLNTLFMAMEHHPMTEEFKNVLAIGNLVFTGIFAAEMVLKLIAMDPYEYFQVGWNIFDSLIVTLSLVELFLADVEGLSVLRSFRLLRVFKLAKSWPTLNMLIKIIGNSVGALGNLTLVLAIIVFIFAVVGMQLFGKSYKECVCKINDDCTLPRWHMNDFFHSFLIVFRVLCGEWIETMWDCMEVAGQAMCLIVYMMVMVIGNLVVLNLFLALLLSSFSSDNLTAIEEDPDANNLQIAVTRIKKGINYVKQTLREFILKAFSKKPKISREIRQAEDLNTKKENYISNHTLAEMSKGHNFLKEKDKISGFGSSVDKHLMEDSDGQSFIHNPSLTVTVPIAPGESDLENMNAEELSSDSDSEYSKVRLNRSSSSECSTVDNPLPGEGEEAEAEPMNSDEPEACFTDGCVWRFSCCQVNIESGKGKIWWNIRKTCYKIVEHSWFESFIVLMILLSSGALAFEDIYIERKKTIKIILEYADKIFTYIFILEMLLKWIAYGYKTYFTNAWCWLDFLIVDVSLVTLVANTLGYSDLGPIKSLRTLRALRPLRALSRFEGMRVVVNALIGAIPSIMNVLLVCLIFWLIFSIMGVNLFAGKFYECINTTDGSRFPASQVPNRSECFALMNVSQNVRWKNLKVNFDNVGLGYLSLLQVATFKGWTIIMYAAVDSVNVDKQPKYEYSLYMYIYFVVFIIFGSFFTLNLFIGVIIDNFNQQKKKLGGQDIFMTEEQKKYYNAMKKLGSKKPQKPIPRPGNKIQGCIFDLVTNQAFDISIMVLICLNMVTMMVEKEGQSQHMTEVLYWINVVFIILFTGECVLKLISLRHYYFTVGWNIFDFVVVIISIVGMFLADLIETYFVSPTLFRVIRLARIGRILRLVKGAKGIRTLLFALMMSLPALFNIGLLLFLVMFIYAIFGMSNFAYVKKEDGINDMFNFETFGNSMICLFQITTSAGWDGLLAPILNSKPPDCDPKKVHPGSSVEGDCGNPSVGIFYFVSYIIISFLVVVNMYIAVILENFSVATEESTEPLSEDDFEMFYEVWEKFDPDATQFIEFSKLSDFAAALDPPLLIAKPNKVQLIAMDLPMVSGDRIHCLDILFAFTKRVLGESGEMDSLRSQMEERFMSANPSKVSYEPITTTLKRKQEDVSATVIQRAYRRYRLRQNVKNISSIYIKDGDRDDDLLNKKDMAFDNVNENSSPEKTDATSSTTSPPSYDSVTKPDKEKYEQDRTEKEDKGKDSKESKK

hKV11.1 [4] = biological target: T1, hKV11.1
hNaV1.3 = hNaV1.3 (Homo sapiens, UniProt Q9NY46); test: cell-based; conditions: SD
NaV1.2 = conditions: cited from earlier work
hNaV1.6 = hNaV1.6 (Homo sapiens, UniProt Q9UQD0); test: cell-based; conditions: SD
[5] = system: OD1-induced painful behavior of mice; conditions: mouse, in vivo
acute heat responses = conditions: in vivo, ip; cited from earlier work
Drosophila Para/TipE = conditions: cited from earlier work
NaV1.7 = conditions: cited from earlier work
NaV1.1 = conditions: cited from earlier work
hNaV1.1 = hNaV1.1 (Homo sapiens, UniProt P35498); test: cell-based; conditions: SD
NaV1.8 = conditions: cited from earlier work
NaV1.5 = conditions: cited from earlier work
NaV1.3 = conditions: cited from earlier work
[6] = system: paw formalin injection pain; conditions: mouse, in vivo; cited from earlier work
[7] = system: CFA-induced heat hyperalgesia; conditions: mouse, in vivo; cited from earlier work
hNaV1.1–1.8 = format: cell-based, human; conditions: read-out: IC90–95 (compound concentration necessary to inhibit 90–95% of current)
[8] = system: OD1-induced painful behavior of mice; conditions: mouse, in vivo; cited from earlier work
hNaV1.7 [9] = biological target: T2, hNaV1.7; conditions: cited from earlier work

T1 sequence (Q12809 whole entry): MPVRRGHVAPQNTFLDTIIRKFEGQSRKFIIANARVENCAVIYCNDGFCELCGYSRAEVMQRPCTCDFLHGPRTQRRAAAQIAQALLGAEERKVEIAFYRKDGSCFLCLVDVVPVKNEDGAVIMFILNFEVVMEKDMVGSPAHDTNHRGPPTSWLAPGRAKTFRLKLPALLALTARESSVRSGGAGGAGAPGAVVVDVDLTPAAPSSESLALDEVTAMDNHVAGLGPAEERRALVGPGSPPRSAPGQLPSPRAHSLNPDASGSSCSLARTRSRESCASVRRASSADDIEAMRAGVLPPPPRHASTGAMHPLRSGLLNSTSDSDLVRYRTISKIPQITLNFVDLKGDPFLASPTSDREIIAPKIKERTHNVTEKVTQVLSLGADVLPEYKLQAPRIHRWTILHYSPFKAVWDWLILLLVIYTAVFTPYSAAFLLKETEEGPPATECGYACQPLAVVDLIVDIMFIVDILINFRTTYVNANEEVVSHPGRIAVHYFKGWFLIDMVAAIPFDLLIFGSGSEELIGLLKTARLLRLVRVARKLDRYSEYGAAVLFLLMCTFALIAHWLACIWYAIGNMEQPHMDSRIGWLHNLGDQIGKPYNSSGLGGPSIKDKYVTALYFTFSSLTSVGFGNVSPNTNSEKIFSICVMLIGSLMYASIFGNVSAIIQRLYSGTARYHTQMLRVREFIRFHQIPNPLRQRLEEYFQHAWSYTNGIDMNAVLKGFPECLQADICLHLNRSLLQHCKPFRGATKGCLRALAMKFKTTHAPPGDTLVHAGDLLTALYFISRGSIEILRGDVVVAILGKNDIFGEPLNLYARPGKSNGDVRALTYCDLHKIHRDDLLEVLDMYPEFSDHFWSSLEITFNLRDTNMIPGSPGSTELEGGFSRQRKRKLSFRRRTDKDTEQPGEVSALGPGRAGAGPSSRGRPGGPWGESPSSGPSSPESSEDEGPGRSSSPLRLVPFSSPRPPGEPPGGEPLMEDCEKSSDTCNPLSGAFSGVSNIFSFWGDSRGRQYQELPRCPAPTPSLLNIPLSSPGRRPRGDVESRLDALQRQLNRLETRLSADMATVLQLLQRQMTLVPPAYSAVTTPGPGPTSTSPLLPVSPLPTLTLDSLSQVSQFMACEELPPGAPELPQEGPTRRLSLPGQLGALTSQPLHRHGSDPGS

Molecule: CC[C@H](C)[C@H](NC(=O)[C@H](CC(=O)O)NC(=O)[C@@H](NC(=O)[C@@H]1CCCN1C(=O)[C@@H](N)CCCNC(=N)N)[C@@H](C)O)C(=O)N[C@@H](CCCCN)C(=O)N[C@H]1CSSC[C@@H]2NC(=O)[C@H](CCCNC(=N)N)NC(=O)CNC(=O)[C@H](CC(N)=O)NC(=O)[C@H]([C@@H](C)O)NC(=O)[C@H](CCCCN)NC(=O)CNC(=O)[C@H](Cc3ccccc3)NC(=O)[C@H](CCCNC(=N)N)NC(=O)[C@H](CO)NC(=O)[C@H](CCCCN)NC(=O)[C@@H]3CSSC[C@@H](C(=O)N[C@@H](Cc4ccccc4)C(=O)O)NC(=O)[C@H](CC(=O)O)NC(=O)[C@H](CSSC[C@H](NC(=O)[C@H](CCC(N)=O)NC(=O)[C@H](Cc4ccc(O)cc4)NC(=O)[C@H](CO)NC(=O)[C@H](CCC(=O)O)NC(=O)[C@H](CO)NC1=O)C(=O)N[C@@H](Cc1ccccc1)C(=O)N1CCC[C@H]1C(=O)N[C@@H](C(C)C)C(=O)N3)NC(=O)[C@H](Cc1ccccc1)NC(=O)CNC(=O)[C@H](CC(N)=O)NC(=O)[C@H](C(C)C)NC2=O [BeKm-1] (HELM PEPTIDE1{R.P.T.D.I.K.C.S.E.S.Y.Q.C.F.P.V.C.K.S.R.F.G.K.T.N.G.R.C.V.N.G.F.C.D.C.F}$PEPTIDE1,PEPTIDE1,7:R3-28:R3|PEPTIDE1,PEPTIDE1,13:R3-33:R3|PEPTIDE1,PEPTIDE1,17:R3-35:R3$$$V2.0)
- IC90 (hKV11.1 [1]): 1 µM

Molecule: CC(C)C[C@@H]1NC(=O)[C@@H](NC(=O)[C@H](C)N)CSSC[C@@H]2NC(=O)[C@@H]3CSSC[C@@H](C(=O)N[C@@H](CCCNC(=N)N)C(=O)N[C@@H](Cc4ccc(O)cc4)C(=O)N[C@@H](CCCCN)C(=O)N[C@@H](CC(C)C)C(=O)N[C@@H](Cc4ccccc4)C(=O)O)NC(=O)[C@H](Cc4c[nH]c5ccccc45)NC(=O)[C@@H]4CCCN4C(=O)[C@H](Cc4ccc(O)cc4)NC(=O)[C@H](CCCCN)NC(=O)[C@H](Cc4c[nH]c5ccccc45)NC(=O)[C@H](CCC(=O)O)NC(=O)[C@H](CSSC[C@H](NC(=O)[C@H](CO)NC(=O)[C@H](C)NC(=O)[C@H](Cc4c[nH]c5ccccc45)NC(=O)[C@H](CCC(N)=O)NC(=O)CNC1=O)C(=O)N[C@@H](CC(=O)O)C(=O)N1CCC[C@H]1C(=O)N[C@@H](CCCCN)C(=O)N[C@@H](C)C(=O)N[C@@H](CO)C(=O)N[C@@H](CCCCN)C(=O)N3)NC(=O)[C@H](C)NC(=O)[C@H](Cc1ccc(O)cc1)NC(=O)[C@H](CC(N)=O)NC(=O)[C@@H]1CCCN1C2=O [D7A] (HELM PEPTIDE1{A.C.L.G.Q.W.A.S.C.D.P.K.A.S.K.C.C.P.N.Y.A.C.E.W.K.Y.P.W.C.R.Y.K.L.F}$PEPTIDE1,PEPTIDE1,2:R3-17:R3|PEPTIDE1,PEPTIDE1,9:R3-22:R3|PEPTIDE1,PEPTIDE1,16:R3-29:R3$$$V2.0)
- IC50 (hNaV1.5): 0.0933 ± 0.0329 µM
- IC50 (hNaV1.8; SD): 4 ± 0.5 µM
- IC50 (hNaV1.2): 0.0473 ± 0.0052 µM
- gain of affinity versus PhlTx1 [2]: 2.5-7.4 fold
- Hill number nH, all concentration–response curves [2]: 1.06 ± 0.13
- IC50 (hCaV1.2): 0.8 ± 0.253 µM
- IC50 (hNaV1.7 [3]; IC50 on hNaV1.7 current): 0.073 ± 0.0237 µM
- IC50 (hNaV1.7 [3]; hNaV1.7 IC50): 0.047 µM
- activity on the KV11.1 subtype (hKV11.1 [4]): inactive

Molecule: CC(C)C[C@@H]1NC(=O)[C@@H](NC(=O)[C@H](C)N)CSSC[C@@H]2NC(=O)[C@@H]3CSSC[C@@H](C(=O)N[C@@H](CCCNC(=N)N)C(=O)N[C@@H](Cc4ccc(O)cc4)C(=O)N[C@@H](CCCCN)C(=O)N[C@@H](CC(C)C)C(=O)N[C@@H](Cc4ccccc4)C(=O)O)NC(=O)[C@H](Cc4c[nH]c5ccccc45)NC(=O)[C@@H]4CCCN4C(=O)[C@H](Cc4ccc(O)cc4)NC(=O)[C@H](CCCCN)NC(=O)[C@H](Cc4c[nH]c5ccccc45)NC(=O)[C@H](CCC(=O)O)NC(=O)[C@H](CSSC[C@H](NC(=O)[C@H](CO)NC(=O)[C@H](CC(=O)O)NC(=O)[C@H](Cc4c[nH]c5ccccc45)NC(=O)[C@H](CCC(N)=O)NC(=O)CNC1=O)C(=O)N[C@@H](CC(=O)O)C(=O)N1CCC[C@H]1C(=O)N[C@@H](CCCCN)C(=O)N[C@@H](C)C(=O)N[C@@H](CO)C(=O)N[C@@H](CCCCN)C(=O)N3)NC(=O)[C@H](C)NC(=O)[C@H](Cc1ccc(O)cc1)NC(=O)[C@H](CC(N)=O)NC(=O)[C@@H]1CCCN1C2=O [PhlTx1] (HELM PEPTIDE1{A.C.L.G.Q.W.D.S.C.D.P.K.A.S.K.C.C.P.N.Y.A.C.E.W.K.Y.P.W.C.R.Y.K.L.F}$PEPTIDE1,PEPTIDE1,2:R3-17:R3|PEPTIDE1,PEPTIDE1,9:R3-22:R3|PEPTIDE1,PEPTIDE1,16:R3-29:R3$$$V2.0)
- IC50 (hNaV1.3): 0.202 ± 0.11 µM
- IC50 (hNaV1.5): 0.711 µM and 0.396 µM
- inhibition of NaV1.2 current (NaV1.2): less than 10%
- IC50 (hNaV1.8): > 10 µM
- effect on the hNaV1.8 current (hNaV1.8): unaffected
- IC50 (hNaV1.6): 0.491 ± 0.109 µM
- IC50 (hNaV1.2): 0.0737 ± 0.0463 µM
- IC50 (hNaV1.2; read-out: IC50 on hNaV1.2 current): 0.279 ± 0.0061 µM
- cardiac or neuromuscular side-effects [5]: no sign of cardiac or neuromuscular side-effects
- effect on mouse acute heat responses (acute heat responses): ineffective
- Hill number nH, all concentration–response curves [2]: 1.05 ± 0.15
- inhibition of Drosophila Para/TipE current (Drosophila Para/TipE): less than 10%
- inhibition of NaV1.7 current (NaV1.7): greater than 90%
- IC50 (NaV1.7; read-out: mean IC50 for interaction with the NaV1.7 subtype): 0.26 µM
- inhibition of NaV1.1 current (NaV1.1): less than 10%
- IC50 (hNaV1.1): 0.28 ± 0.118 µM
- inhibition of NaV1.8 current (NaV1.8): less than 10%
- inhibition of NaV1.5 current (NaV1.5): less than 10%
- inhibition of NaV1.3 current (NaV1.3): less than 10%
- IC50 (hCaV1.2): 5.9 ± 2.1 µM
- effects in acute and inflammatory neuropathic (paw formalin injection) pain [6]: Anti-allodynic and analgesic effects
- pharmacological activity on the hNaV1.7 current (hNaV1.7 [3]): strongly inhibit
- selectivity towards the TTX-R (except hNaV1.8) and other TTX-S (except hNaV1.4) hNaV subtypes (hNaV1.7 [3]): less than 10 fold
- IC50 (hNaV1.7 [3]; IC50 on hNaV1.7 current): 0.309 ± 0.017 µM
- IC50 (hNaV1.7 [3]; hNaV1.7 IC50): 0.254 µM
- analgesia in CFA-induced heat hyperalgesia [7]: ineffective
- effect on the hKV11.1 current (hKV11.1 [4]): no effect

Molecule: NC1=N[C@H](O)[C@H]2[C@H]3O[C@]4(O)O[C@@H]([C@@H](O)[C@@]2(N1)[C@@H]4O)[C@]3(O)CO [Tetrodotoxin (citrate), Tetrodotoxin]
- IC90 (hNaV1.1–1.8): 1 µM

Molecule: CcoTx2: spider toxin, NaV ligand (CLGWFKSCDPKNDKCCKNYTCSRRDRWCKYYL)
- concentration efficient to diminish or completely reverse the OD1-induced manifestations of pain [8]: 1 µM
- IC50 (hNaV1.7 [9]): 0.095 µM

Molecule: Cd1a: spider toxin, NaV ligand (CLGWFKSCDPKNDKCCKNYSCSRRDRWCKYDL)
- concentration efficient to diminish or completely reverse the OD1-induced manifestations of pain [8]: 1 µM
- IC50 (hNaV1.7 [9]): 0.016 µM
